Assay results published in patent US9227935B2, “Piperidine/piperazine derivatives” (Janssen Pharmaceutica N.V., priority 2007, dated 2016).

Target: T1, human DGAT1 (Homo sapiens, UniProt O75907)
T1 construct: FLAG (N); made in house; host or cells: SF9 insect cells (baculovirus, pFastBac); total cell membranes used as the enzyme source
T1 sequence (O75907 1-488): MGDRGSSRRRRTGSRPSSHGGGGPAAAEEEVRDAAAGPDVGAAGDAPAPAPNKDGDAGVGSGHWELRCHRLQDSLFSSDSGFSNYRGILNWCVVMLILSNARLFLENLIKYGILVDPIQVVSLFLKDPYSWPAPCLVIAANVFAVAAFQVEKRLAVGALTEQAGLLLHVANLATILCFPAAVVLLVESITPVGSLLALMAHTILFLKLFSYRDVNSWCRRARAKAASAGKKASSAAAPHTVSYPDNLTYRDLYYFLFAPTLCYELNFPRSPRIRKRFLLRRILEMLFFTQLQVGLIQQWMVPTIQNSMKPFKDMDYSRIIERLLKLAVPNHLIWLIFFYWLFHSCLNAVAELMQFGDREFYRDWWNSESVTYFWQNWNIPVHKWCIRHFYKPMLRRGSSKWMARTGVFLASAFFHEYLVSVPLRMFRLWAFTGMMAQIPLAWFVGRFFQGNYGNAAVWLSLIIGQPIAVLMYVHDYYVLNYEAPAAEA
Experiment: DGAT1 FlashPlate inhibition assay with DGAT1 membrane preparations
Format: biochemical
Conditions: IC50 values expressed in M; pIC50 = -logIC50; inhibition of DGAT1 activity
Excerpt: The inhibiting activity of the present compounds on DGAT1 activity was screened in a single well procedure assay using DGAT1 comprising membrane preparations and DGAT1 substrate comprising micelles and determining formed radio-active triacylglycerol coming in close proximity of a flashplate surface by radioluminescence.
Said assay is described in full detail in WO2006/067071, the content of which is incorporated herein by reference.
By DGAT1 activity is meant the transfer of coenzyme A activated fatty acids to the 3-position of 1,2-diacylglycerols, thus forming a triglyceride molecule, by enzyme DGAT1.
human DGAT1 (NM012079.2) was cloned into the pFastBac vector, containing translation start, a FLAG-tag at the N-terminus as described in literature and a viral Kozak sequence (AAX) preceding the ATG to improve expression in insect cells. Expression was done as described in literature (Cases, S., Smith, S. J., Zheng, Y., Myers H. M., Lear, S. R., Sande, E., Novak, S., Collins, C., Welch, C. B., Lusis, A. J., Erickson, S. K. and Farese, R. V. (1998) Proc. Natl. Acad. Sci. USA 95, 13018-13023.) using SF9 cells.
72 h transfected SF9 cells were collected by centrifugation (13000 rpm-15 min-4° C.) and lysed in 2×500 ml lysis buffer (0.1M Sucrose, 50 mM KCl, 40 mM KH2PO4, 30 mM EDTA pH 7.2. Cells were homogenized by cell disruptor. After centrifugation 1380 rpm-15 min-4° C. (SN discarded), pellet was resuspended in 500 ml lysis buffer and total cell membranes collected by ultracentrifugation at 34000 rpm (100 000 g) for 60 min (4° C.). The collected membranes were resuspended in lysis buffer, divided in aliquots and stored with 10% glycerol at −80° C. until use.
Add 1 ml dioleoyl-sn-glycerol (10 mg/ml) to 10 ml of L-α-phosphatidylcholine (1 mg/ml) and 10 ml of L-α-phosphatidyl-L-serine (1 mg/ml) in a thick glass recipient. Evaporate under nitrogen and put on ice for 15 minutes. Reconstitute in 10 ml Tris/HCl (10 mM, pH 7.4) by sonication on ice. The sonification process consists of sonification cycles of 10 seconds in the sonification bath followed by 10 seconds cool down on ice and repeating this sonification cycle till a homogeneous solution is obtained (takes about 15 minutes). The thus obtained micelles are stored at −20° C. till later use and contain DAG at a final concentration of 1.61 mM.
• 50 mM Tris-HCl (pH 7.4), 150 mM MgCl2, 1 mM EDTA, 0.2% BSA. b) N-ethylmaleimide, 5M • Dissolve 5 g into a final volume of 8 ml DMSO 100% and store at −20° C. in aliquots till later use. c) Substrate mix (for 1 384 well plate=3840 μl) • 612 μl micelles stock (51 μM final) • 16.6 μl oleoylCoA 9.7 mM • 23 μl [^3H]-oleoylCoA (49 Ci/mmol, 500 μCi/ml) • 3188.4 μl Tris pH 7.4, 10 mM d) Enzyme mix (for 1 384 well plate=3520 μl) (5 μg/ml) • Add 11.73 μl of DGAT membrane stock (1500 μg/ml stock) to 3508 μl assay buffer. e) Stop mix (for 1 384 well plate=7.68 ml) (250 mM) • Add 384 μl of N-ethylmaleimide (5M) to 3.456 ml DMSO 100%, and further dilute 3.84 ml of said solution with 3.84 ml DMSO 10%. Method
DGAT activity in membrane preparations was assayed in 50 mM Tris-HCl (pH 7.4), 150 mM MgCl2, 1 mM EDTA and 0.2% BSA, containing 50 μM DAG, […] PC/PS and 8.4 μM [^3H]-oleoylCoA (at a specific activity of 30 nCi/well) in a final volume of 50 μl in 384-well format using the red shifted Basic Image FlashPlate™ (Perkin Elmer Cat. No. SMP400).
In detail, 10 μl enzyme mix and 10 μl substrate mix were added to 30 μl of assay buffer, optionally in the presence of 1 μl DMSO (blank and controls) or 1 μl of the compound to be tested. This reaction mixture was incubated for 120 minutes at 37° C. and the enzymatic reaction stopped by adding 20 μl of the stop mix. The plates were sealed and the vesicles allowed to settle overnight at room temperature. Plates were centrifuged for 5 minutes at 1500 rpm and measured in Leadseeker. […]

| IC50 | Compound |
| --- | --- |
| 2400 nM | O=C(Nc1ccc(C2CCN(C(=O)Nc3c(Cl)cccc3Cl)CC2)cc1)C1CNC1 [Compound 46] |
| 8910 nM | O=C(Nc1ccc(C2CCN(C(=O)Nc3c(Cl)cccc3Cl)CC2)cc1)C1CCCNC1 (stereo not drawn) [Compound 49] |
| 295 nM | CC(C)(C)OC(=O)N1CSCC1C(=O)Nc1ccc(C2CCN(C(=O)Nc3c(Cl)cccc3Cl)CC2)cc1 (stereo not drawn) [Compound 50] |
| 490 nM | CC(C)(C)OC(=O)N1CCCC1C(=O)Nc1ccc(C2CCN(C(=O)Nc3c(Cl)cccc3Cl)CC2)cc1 (stereo not drawn) [Compound 51] |
| 26.3 nM | CCc1nc(C)c(-c2ccccc2C(=O)Nc2ccc(C3CCN(C(=O)Nc4c(Cl)cccc4Cl)CC3)cc2)s1 [Compound 55] |
| 646 nM | O=C(Nc1ccc(C2CCN(C(=O)Nc3c(Cl)cccc3Cl)CC2)cc1)c1ccccc1-c1ccc(Cl)cc1 [Compound 57] |
| 17.4 nM | Cc1ccccc1-c1cccc(C(=O)Nc2ccc(C3CCN(C(=O)Nc4c(Cl)cccc4Cl)CC3)cc2)c1 [Compound 60] |
| 427 nM | CC(C)c1ccc(-c2ccccc2C(=O)Nc2ccc(C3CCN(C(=O)Nc4c(Cl)cccc4Cl)CC3)cc2)cc1 [Compound 61] |
| 120 nM | O=C(Nc1ccc(C2CCN(C(=O)Nc3c(Cl)cccc3Cl)CC2)cc1)c1cccc2c1-c1ccccc1C2=O [Compound 63] |
| 204 nM | Cc1nc(C(=O)Nc2ccc(N3CCN(C(=O)Nc4c(Cl)cccc4Cl)CC3)cc2)c(-c2cccc(C(F)(F)F)c2)s1 [Compound 65] |
| 58.9 nM | Cc1ccc(C(=O)Nc2ccc(N3CCN(C(=O)Nc4c(Cl)cccc4Cl)CC3)cc2)c(-c2ccc(C(F)(F)F)cc2)c1 [Compound 66] |
| 7240 nM | O=C(Nc1ccc(N2CCN(C(=S)Nc3ccc(Cl)cc3Cl)CC2)cc1)c1ccccc1-c1ccc(C(F)(F)F)cc1 [Compound 68] |
| 7940 nM | CC(C)(C)NC(=O)N1CCN(c2ccc(NC(=O)c3ccccc3-c3ccc(C(F)(F)F)cc3)cc2)CC1 [Compound 69] |
| 5500 nM | O=C(Nc1ccc(N2CCN(C(=O)NCc3ccccc3)CC2)cc1)c1ccccc1-c1ccc(C(F)(F)F)cc1 [Compound 70] |
| 7760 nM | CCOC(=O)c1ccc(NC(=O)N2CCN(c3ccc(NC(=O)c4ccccc4-c4ccc(C(F)(F)F)cc4)cc3)CC2)cc1 [Compound 72] |
| 3550 nM | CN(C)c1ccc(NC(=O)N2CCN(c3ccc(NC(=O)c4ccccc4-c4ccc(C(F)(F)F)cc4)cc3)CC2)cc1 [Compound 73] |
| 7590 nM | CCCc1ccccc1NC(=O)N1CCN(c2ccc(NC(=O)c3ccccc3-c3ccc(C(F)(F)F)cc3)cc2)CC1 [Compound 76] |
| 4470 nM | CC(C)c1ccccc1NC(=O)N1CCN(c2ccc(NC(=O)c3ccccc3-c3ccc(C(F)(F)F)cc3)cc2)CC1 [Compound 77] |
| 6460 nM | CCC(C)c1ccccc1NC(=O)N1CCN(c2ccc(NC(=O)c3ccccc3-c3ccc(C(F)(F)F)cc3)cc2)CC1 (stereo not drawn) [Compound 79] |
| 269 nM | Cc1cccc(C)c1NC(=O)N1CCN(c2ccc(NC(=O)c3ccccc3-c3ccc(C(F)(F)F)cc3)cc2)CC1 [Compound 82] |
| 1550 nM | CCc1cccc(C)c1NC(=O)N1CCN(c2ccc(NC(=O)c3ccccc3-c3ccc(C(F)(F)F)cc3)cc2)CC1 [Compound 83] |
| 5250 nM | COc1cccc(OC)c1NC(=O)N1CCN(c2ccc(NC(=O)c3ccccc3-c3ccc(C(F)(F)F)cc3)cc2)CC1 [Compound 84] |
| 9770 nM | COC(=O)c1ccccc1NC(=O)N1CCN(c2ccc(NC(=O)c3ccccc3-c3ccc(C(F)(F)F)cc3)cc2)CC1 [Compound 86] |
| 1380 nM | O=C(Nc1ccc(N2CCN(C(=O)Nc3ccccc3Br)CC2)cc1)c1ccccc1-c1ccc(C(F)(F)F)cc1 [Compound 88] |

The remaining lines, values behind:

| Compound | IC50 |
| --- | --- |
| O=C(Nc1ccc(C2CCN(C(=O)Nc3c(Cl)cccc3Cl)CC2)cc1)C1CC(O)CN1 (stereo not drawn) [Compound 47] | 5370 nM |
| O=C(Nc1ccc(C2CCN(C(=O)Nc3c(Cl)cccc3Cl)CC2)cc1)C1CSCN1 (stereo not drawn) [Compound 48] | 3550 nM |
| CC(C)(C)OC(=O)N1CCCC(C(=O)Nc2ccc(C3CCN(C(=O)Nc4c(Cl)cccc4Cl)CC3)cc2)C1 (stereo not drawn) [Compound 52] | 17.4 nM |
| Cc1nc(C(=O)Nc2ccc(C3CCN(C(=O)Nc4c(Cl)cccc4Cl)CC3)cc2)c(-c2cccc(C(F)(F)F)c2)s1 [Compound 53] | 1480 nM |
| O=C(Nc1ccc(C2CCN(C(=O)Nc3c(Cl)cccc3Cl)CC2)cc1)c1ccccc1-c1ccccc1 [Compound 56] | 331 nM |
| Cc1ccc(C(=O)Nc2ccc(C3CCN(C(=O)Nc4c(Cl)cccc4Cl)CC3)cc2)c(-c2ccc(C(F)(F)F)cc2)c1 [Compound 58] | 355 nM |
| Cc1cccc(C(=O)Nc2ccc(C3CCN(C(=O)Nc4c(Cl)cccc4Cl)CC3)cc2)c1-c1ccc(C(F)(F)F)cc1 [Compound 59] | 2040 nM |
| CC(C)(C)c1ccc(-c2ccccc2C(=O)Nc2ccc(C3CCN(C(=O)Nc4c(Cl)cccc4Cl)CC3)cc2)cc1 [Compound 62] | 550 nM |
| Cc1ccc2c(c1)C(=O)c1cc(C)cc(C(=O)Nc3ccc(C4CCN(C(=O)Nc5c(Cl)cccc5Cl)CC4)cc3)c1-2 [Compound 64] | 132 nM |
| Cc1ccc2c(c1)C(=O)c1cc(C)cc(C(=O)Nc3ccc(N4CCN(C(=O)Nc5c(Cl)cccc5Cl)CC4)cc3)c1-2 [Compound 67] | 148 nM |
| O=C(Nc1ccc(N2CCN(C(=O)NCCCc3ccccc3)CC2)cc1)c1ccccc1-c1ccc(C(F)(F)F)cc1 [Compound 71] | 3550 nM |
| Cc1ccccc1NC(=O)N1CCN(c2ccc(NC(=O)c3ccccc3-c3ccc(C(F)(F)F)cc3)cc2)CC1 [Compound 74] | 1100 nM |
| CCc1ccccc1NC(=O)N1CCN(c2ccc(NC(=O)c3ccccc3-c3ccc(C(F)(F)F)cc3)cc2)CC1 [Compound 75] | 2140 nM |
| CC(C)(C)c1ccccc1NC(=O)N1CCN(c2ccc(NC(=O)c3ccccc3-c3ccc(C(F)(F)F)cc3)cc2)CC1 [Compound 78] | 7590 nM |
| COc1ccccc1NC(=O)N1CCN(c2ccc(NC(=O)c3ccccc3-c3ccc(C(F)(F)F)cc3)cc2)CC1 [Compound 80] | 5500 nM |
| CCOc1ccccc1NC(=O)N1CCN(c2ccc(NC(=O)c3ccccc3-c3ccc(C(F)(F)F)cc3)cc2)CC1 [Compound 81] | 8130 nM |
| Cc1cc(C)c(NC(=O)N2CCN(c3ccc(NC(=O)c4ccccc4-c4ccc(C(F)(F)F)cc4)cc3)CC2)c(C)c1 [Compound 85] | 178 nM |
| CCOC(=O)c1ccccc1NC(=O)N1CCN(c2ccc(NC(=O)c3ccccc3-c3ccc(C(F)(F)F)cc3)cc2)CC1 [Compound 87] | 7410 nM |
